Test results as given in PubChem BioAssay (NCI).
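96-well plates; 48 h exposure; 5 concentrations. Endpoints by linear interpolation between flanking doses. Not reached: highest tested concentration assigned. TGI is the concentration that stops growth completely.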

What was measured:
Assay in all cases: NCI-60 cell line screen, 48 h
SNB-78 CNS = system: SNB-78 CNS
LOX IMVI melanoma = system: LOX IMVI melanoma
DLD-1 colon = system: DLD-1 colon
MALME-3M melanoma = system: MALME-3M melanoma
HCT-15 colon = system: HCT-15 colon
SW-620 colon = system: SW-620 colon
SR leukemia = system: SR leukemia
RPMI-8226 leukemia = system: RPMI-8226 leukemia
UO-31 renal = system: UO-31 renal
IGROV1 ovarian = system: IGROV1 ovarian
UACC-62 melanoma = system: UACC-62 melanoma
ACHN renal = system: ACHN renal
EKVX NSCLC = system: EKVX NSCLC
U251 CNS = system: U251 CNS
A549 NSCLC = system: A549 NSCLC
SNB-75 CNS = system: SNB-75 CNS
HCC-2998 colon = system: HCC-2998 colon
SN12C renal = system: SN12C renal
OVCAR-3 ovarian = system: OVCAR-3 ovarian
M14 melanoma = system: M14 melanoma
SK-MEL-2 melanoma = system: SK-MEL-2 melanoma
TK-10 renal = system: TK-10 renal
NCI-H460 lung = system: NCI-H460 lung
RXF-631 renal = system: RXF-631 renal
NCI-H522 lung = system: NCI-H522 lung
SF-268 CNS = system: SF-268 CNS
NCI-H23 lung = system: NCI-H23 lung
KM20L2 colon = system: KM20L2 colon
SK-OV-3 ovarian = system: SK-OV-3 ovarian
SF-539 CNS = system: SF-539 CNS
RXF 393 renal = system: RXF 393 renal
SF-295 CNS = system: SF-295 CNS
HOP-18 NSCLC = system: HOP-18 NSCLC
M19-MEL melanoma = system: M19-MEL melanoma
MOLT-4 leukemia = system: MOLT-4 leukemia
LXFL 529 NSCLC = system: LXFL 529 NSCLC
KM12 colon = system: KM12 colon
SK-MEL-28 melanoma = system: SK-MEL-28 melanoma
OVCAR-8 ovarian = system: OVCAR-8 ovarian
786-0 renal = system: 786-0 renal
SK-MEL-5 melanoma = system: SK-MEL-5 melanoma
XF 498 CNS = system: XF 498 CNS
SNB-19 CNS = system: SNB-19 CNS
DMS 273 small cell lung = system: DMS 273 small cell lung
NCI-H226 lung = system: NCI-H226 lung
HT29 colon = system: HT29 colon
HOP-92 NSCLC = system: HOP-92 NSCLC
UACC-257 melanoma = system: UACC-257 melanoma
DMS 114 small cell lung = system: DMS 114 small cell lung
HCT-116 colon = system: HCT-116 colon
OVCAR-5 ovarian = system: OVCAR-5 ovarian
COLO 205 colon = system: COLO 205 colon
CCRF-CEM leukemia = system: CCRF-CEM leukemia
K-562 leukemia = system: K-562 leukemia
A498 renal = system: A498 renal
HOP-62 NSCLC = system: HOP-62 NSCLC
HL-60(TB) leukemia = system: HL-60(TB) leukemia
CAKI-1 renal = system: CAKI-1 renal
OVCAR-4 ovarian = system: OVCAR-4 ovarian

COc1cc2c3c(c1OC)C1(C=CC(=O)C=C1)C[C@H]3N(C)CC2
TGI (SNB-78 CNS): > 100 µM
TGI (LOX IMVI melanoma): > 100 µM
TGI (DLD-1 colon): > 100 µM
TGI (MALME-3M melanoma): > 100 µM
TGI (HCT-15 colon): > 100 µM
TGI (SW-620 colon): > 100 µM
TGI (SR leukemia): > 100 µM
TGI (RPMI-8226 leukemia): > 100 µM
TGI (UO-31 renal): > 100 µM
TGI (IGROV1 ovarian): > 100 µM
TGI (UACC-62 melanoma): > 100 µM
TGI (ACHN renal): > 100 µM
TGI (EKVX NSCLC): > 100 µM
TGI (U251 CNS): > 100 µM
TGI (A549 NSCLC): > 100 µM
TGI (SNB-75 CNS): > 100 µM
TGI (HCC-2998 colon): > 100 µM
TGI (SN12C renal): > 100 µM
TGI (OVCAR-3 ovarian): > 100 µM
TGI (M14 melanoma): > 100 µM
TGI (SK-MEL-2 melanoma): > 100 µM
TGI (TK-10 renal): > 100 µM
TGI (NCI-H460 lung): > 100 µM
TGI (RXF-631 renal): > 100 µM
TGI (NCI-H522 lung): > 100 µM
TGI (SF-268 CNS): > 100 µM
TGI (NCI-H23 lung): > 100 µM
TGI (KM20L2 colon): > 100 µM
TGI (SK-OV-3 ovarian): > 100 µM
TGI (SF-539 CNS): > 100 µM
TGI (RXF 393 renal): > 100 µM
TGI (SF-295 CNS): > 100 µM
TGI (HOP-18 NSCLC): > 100 µM
TGI (M19-MEL melanoma): > 100 µM
TGI (MOLT-4 leukemia): > 100 µM
TGI (LXFL 529 NSCLC): > 100 µM
TGI (KM12 colon): > 100 µM
TGI (SK-MEL-28 melanoma): > 100 µM
TGI (OVCAR-8 ovarian): > 100 µM
TGI (786-0 renal): > 100 µM
TGI (SK-MEL-5 melanoma): > 100 µM
TGI (XF 498 CNS): > 100 µM
TGI (SNB-19 CNS): > 100 µM
TGI (DMS 273 small cell lung): > 100 µM
TGI (NCI-H226 lung): > 100 µM
TGI (HT29 colon): > 100 µM
TGI (HOP-92 NSCLC): > 100 µM
TGI (UACC-257 melanoma): > 100 µM
TGI (DMS 114 small cell lung): > 100 µM
TGI (HCT-116 colon): > 100 µM
TGI (OVCAR-5 ovarian): > 100 µM
TGI (COLO 205 colon): > 100 µM

O=C1/C(=C/c2cccc([N+](=O)[O-])c2)COc2ccc(Br)cc21
TGI (SNB-78 CNS): > 100 µM
TGI (CCRF-CEM leukemia): > 100 µM
TGI (LOX IMVI melanoma): > 100 µM
TGI (DLD-1 colon): > 100 µM
TGI (MALME-3M melanoma): > 100 µM
TGI (SW-620 colon): > 100 µM
TGI (K-562 leukemia): > 100 µM
TGI (RPMI-8226 leukemia): 6.57 µM
TGI (UO-31 renal): > 100 µM
TGI (IGROV1 ovarian): > 100 µM
TGI (ACHN renal): > 100 µM
TGI (EKVX NSCLC): > 100 µM
TGI (U251 CNS): > 100 µM
TGI (A549 NSCLC): > 100 µM
TGI (SNB-75 CNS): > 100 µM
TGI (HCC-2998 colon): > 100 µM
TGI (OVCAR-3 ovarian): > 100 µM
TGI (A498 renal): > 100 µM
TGI (SK-MEL-2 melanoma): > 100 µM
TGI (TK-10 renal): > 100 µM
TGI (NCI-H460 lung): > 100 µM
TGI (NCI-H522 lung): > 100 µM
TGI (SF-268 CNS): > 100 µM
TGI (NCI-H23 lung): > 100 µM
TGI (KM20L2 colon): > 100 µM
TGI (SK-OV-3 ovarian): > 100 µM
TGI (SF-539 CNS): > 100 µM
TGI (HOP-62 NSCLC): > 100 µM
TGI (RXF 393 renal): > 100 µM
TGI (SF-295 CNS): > 100 µM
TGI (HOP-18 NSCLC): > 100 µM
TGI (M19-MEL melanoma): > 100 µM
TGI (MOLT-4 leukemia): 96 µM
TGI (LXFL 529 NSCLC): > 100 µM
TGI (HL-60(TB) leukemia): 58 µM
TGI (KM12 colon): > 100 µM
TGI (SK-MEL-28 melanoma): > 100 µM
TGI (OVCAR-8 ovarian): > 100 µM
TGI (786-0 renal): > 100 µM
TGI (SK-MEL-5 melanoma): > 100 µM
TGI (XF 498 CNS): > 100 µM
TGI (DMS 273 small cell lung): > 100 µM
TGI (HT29 colon): > 100 µM
TGI (HOP-92 NSCLC): > 100 µM
TGI (UACC-257 melanoma): > 100 µM
TGI (DMS 114 small cell lung): > 100 µM
TGI (HCT-116 colon): > 100 µM
TGI (OVCAR-5 ovarian): > 100 µM
TGI (COLO 205 colon): > 100 µM

C=CC/C=C/C/C=C/CCCCCCCc1cccc(O)c1C(=O)O
TGI (SNB-78 CNS): > 100 µM
TGI (CCRF-CEM leukemia): > 100 µM
TGI (LOX IMVI melanoma): > 100 µM
TGI (DLD-1 colon): > 100 µM
TGI (MALME-3M melanoma): > 100 µM
TGI (HCT-15 colon): > 100 µM
TGI (SW-620 colon): > 100 µM
TGI (SR leukemia): > 100 µM
TGI (K-562 leukemia): > 100 µM
TGI (RPMI-8226 leukemia): > 100 µM
TGI (UO-31 renal): 79.1 µM
TGI (IGROV1 ovarian): > 100 µM
TGI (UACC-62 melanoma): > 100 µM
TGI (ACHN renal): > 100 µM
TGI (EKVX NSCLC): > 100 µM
TGI (U251 CNS): 46 µM
TGI (A549 NSCLC): > 100 µM
TGI (SNB-75 CNS): > 100 µM
TGI (HCC-2998 colon): > 100 µM
TGI (OVCAR-3 ovarian): > 100 µM
TGI (M14 melanoma): > 100 µM
TGI (SK-MEL-2 melanoma): > 100 µM
TGI (TK-10 renal): > 100 µM
TGI (NCI-H460 lung): > 100 µM
TGI (RXF-631 renal): > 100 µM
TGI (NCI-H522 lung): > 100 µM
TGI (SF-268 CNS): 80.8 µM
TGI (NCI-H23 lung): 75.9 µM
TGI (KM20L2 colon): > 100 µM
TGI (SK-OV-3 ovarian): 79.8 µM
TGI (SF-539 CNS): > 100 µM
TGI (HOP-62 NSCLC): 67.5 µM
TGI (SF-295 CNS): > 100 µM
TGI (HOP-18 NSCLC): 65.3 µM
TGI (M19-MEL melanoma): > 100 µM
TGI (CAKI-1 renal): > 100 µM
TGI (MOLT-4 leukemia): > 100 µM
TGI (LXFL 529 NSCLC): > 100 µM
TGI (OVCAR-4 ovarian): > 100 µM
TGI (HL-60(TB) leukemia): > 100 µM
TGI (KM12 colon): > 100 µM
TGI (SK-MEL-28 melanoma): 89.6 µM
TGI (OVCAR-8 ovarian): > 100 µM
TGI (786-0 renal): > 100 µM
TGI (XF 498 CNS): > 100 µM
TGI (SNB-19 CNS): > 100 µM
TGI (DMS 273 small cell lung): > 100 µM
TGI (HT29 colon): > 100 µM
TGI (HOP-92 NSCLC): 75 µM
TGI (UACC-257 melanoma): > 100 µM
TGI (DMS 114 small cell lung): > 100 µM
TGI (HCT-116 colon): > 100 µM
TGI (OVCAR-5 ovarian): > 100 µM
TGI (COLO 205 colon): > 100 µM

Cc1ccc(S(=O)(=O)C(C#N)c2nc3ccccc3nc2-n2ccnc2)cc1 (stereo not given)
TGI (SNB-78 CNS): > 100 µM
TGI (CCRF-CEM leukemia): > 100 µM
TGI (DLD-1 colon): > 100 µM
TGI (MALME-3M melanoma): > 100 µM
TGI (HCT-15 colon): > 100 µM
TGI (K-562 leukemia): > 100 µM
TGI (RPMI-8226 leukemia): > 100 µM
TGI (UO-31 renal): > 100 µM
TGI (IGROV1 ovarian): > 100 µM
TGI (ACHN renal): > 100 µM
TGI (EKVX NSCLC): > 100 µM
TGI (U251 CNS): > 100 µM
TGI (A549 NSCLC): > 100 µM
TGI (SNB-75 CNS): > 100 µM
TGI (HCC-2998 colon): > 100 µM
TGI (SN12C renal): > 100 µM
TGI (OVCAR-3 ovarian): > 100 µM
TGI (M14 melanoma): > 100 µM
TGI (SK-MEL-2 melanoma): > 100 µM
TGI (TK-10 renal): > 100 µM
TGI (NCI-H460 lung): > 100 µM
TGI (NCI-H522 lung): > 100 µM
TGI (SF-268 CNS): > 100 µM
TGI (NCI-H23 lung): > 100 µM
TGI (SK-OV-3 ovarian): > 100 µM
TGI (SF-539 CNS): > 100 µM
TGI (HOP-62 NSCLC): > 100 µM
TGI (SF-295 CNS): > 100 µM
TGI (HOP-18 NSCLC): > 100 µM
TGI (M19-MEL melanoma): > 100 µM
TGI (MOLT-4 leukemia): > 100 µM
TGI (LXFL 529 NSCLC): > 100 µM
TGI (OVCAR-4 ovarian): > 100 µM
TGI (HL-60(TB) leukemia): > 100 µM
TGI (KM12 colon): > 100 µM
TGI (SK-MEL-28 melanoma): > 100 µM
TGI (OVCAR-8 ovarian): > 100 µM
TGI (786-0 renal): > 100 µM
TGI (SK-MEL-5 melanoma): > 100 µM
TGI (XF 498 CNS): > 100 µM
TGI (SNB-19 CNS): > 100 µM
TGI (DMS 273 small cell lung): > 100 µM
TGI (NCI-H226 lung): > 100 µM
TGI (HT29 colon): > 100 µM
TGI (HOP-92 NSCLC): > 100 µM
TGI (UACC-257 melanoma): > 100 µM
TGI (DMS 114 small cell lung): > 100 µM
TGI (HCT-116 colon): > 100 µM
TGI (OVCAR-5 ovarian): > 100 µM
TGI (COLO 205 colon): > 100 µM
